Test results published in ChEMBL document CHEMBL5325488, “Discovery of SMD-3040 as a Potent and Selective SMARCA2 PROTAC Degrader with Strong in vivo Antitumor Activity” (J Med Chem, 2023).

Assays:
SK-MEL-28 [1] = assay: Antiproliferative activity against human SK-MEL-28 cells expressing wild-type SMARCA2 assessed as cell growth inhibition measured after 7 days by WST-8 assay; assay type: functional; conditions: SK-MEL-28, 168 h, time 7 day
[2] = target: T1, von Hippel-Lindau disease tumor suppressor/SWI/SNF-related matrix-associated actin-dependent regulator of chromatin subfamily A member 2 (Homo sapiens, UniProt P51531+P40337); assay: In vivo PROTAC activity at VHL/SMARCA2 in SCID mouse xenografted with human MV4-11 cells assessed as reduction of SMARCA2 level in tumor at 50 mg/kg, iv administered as single dose measured after 6 hrs by Western blotting analysis; assay type: ADME, organism-based; design: scale not given: the % may be the effect or the level left
Target sequence in this assay (P51531 whole entry): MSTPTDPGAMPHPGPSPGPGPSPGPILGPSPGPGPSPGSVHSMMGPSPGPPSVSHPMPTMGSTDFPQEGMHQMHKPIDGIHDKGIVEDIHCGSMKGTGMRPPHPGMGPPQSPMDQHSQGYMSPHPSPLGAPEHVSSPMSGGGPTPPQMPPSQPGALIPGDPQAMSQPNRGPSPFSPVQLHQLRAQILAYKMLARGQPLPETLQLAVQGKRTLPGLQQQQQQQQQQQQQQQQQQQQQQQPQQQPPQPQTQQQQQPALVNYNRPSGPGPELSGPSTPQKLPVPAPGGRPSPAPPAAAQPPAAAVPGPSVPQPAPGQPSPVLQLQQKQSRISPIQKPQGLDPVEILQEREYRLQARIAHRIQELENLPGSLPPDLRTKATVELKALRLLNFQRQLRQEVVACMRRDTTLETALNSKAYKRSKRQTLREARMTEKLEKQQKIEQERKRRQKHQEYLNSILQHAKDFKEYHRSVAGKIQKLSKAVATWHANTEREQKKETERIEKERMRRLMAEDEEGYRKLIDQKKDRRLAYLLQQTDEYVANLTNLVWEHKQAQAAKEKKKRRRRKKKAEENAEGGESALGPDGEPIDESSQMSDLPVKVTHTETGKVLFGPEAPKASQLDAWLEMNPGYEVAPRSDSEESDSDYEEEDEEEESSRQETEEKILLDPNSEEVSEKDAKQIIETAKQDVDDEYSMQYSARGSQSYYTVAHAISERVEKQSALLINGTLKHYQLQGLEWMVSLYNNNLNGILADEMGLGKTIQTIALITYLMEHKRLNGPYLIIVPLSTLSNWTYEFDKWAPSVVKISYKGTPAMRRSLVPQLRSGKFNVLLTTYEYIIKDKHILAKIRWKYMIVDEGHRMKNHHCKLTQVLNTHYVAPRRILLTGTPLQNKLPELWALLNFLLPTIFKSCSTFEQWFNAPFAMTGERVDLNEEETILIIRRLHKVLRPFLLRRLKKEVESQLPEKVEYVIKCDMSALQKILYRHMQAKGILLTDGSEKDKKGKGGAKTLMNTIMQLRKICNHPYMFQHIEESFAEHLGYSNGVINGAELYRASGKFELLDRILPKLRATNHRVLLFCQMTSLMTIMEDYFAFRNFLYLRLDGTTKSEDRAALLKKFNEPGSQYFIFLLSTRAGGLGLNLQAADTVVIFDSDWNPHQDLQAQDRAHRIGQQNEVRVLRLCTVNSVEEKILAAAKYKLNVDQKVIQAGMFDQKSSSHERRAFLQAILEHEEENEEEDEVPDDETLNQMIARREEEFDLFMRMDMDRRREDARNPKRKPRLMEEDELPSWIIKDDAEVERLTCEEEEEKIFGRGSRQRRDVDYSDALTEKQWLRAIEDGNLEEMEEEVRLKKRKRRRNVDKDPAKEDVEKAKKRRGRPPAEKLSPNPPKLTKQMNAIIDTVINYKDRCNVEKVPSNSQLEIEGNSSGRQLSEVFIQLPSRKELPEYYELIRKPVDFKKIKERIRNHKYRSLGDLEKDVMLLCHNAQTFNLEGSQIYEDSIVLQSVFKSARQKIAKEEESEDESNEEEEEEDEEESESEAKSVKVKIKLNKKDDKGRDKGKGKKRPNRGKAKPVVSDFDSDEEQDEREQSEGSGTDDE
Target sequence in this assay (P40337 whole entry): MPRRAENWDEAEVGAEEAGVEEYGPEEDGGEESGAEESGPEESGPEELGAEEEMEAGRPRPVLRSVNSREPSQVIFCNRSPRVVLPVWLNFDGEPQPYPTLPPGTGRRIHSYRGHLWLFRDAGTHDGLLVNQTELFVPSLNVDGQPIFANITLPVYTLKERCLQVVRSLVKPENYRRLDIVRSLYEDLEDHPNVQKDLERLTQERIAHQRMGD

A549 = assay: Antiproliferative activity against SMARCA4-deficient human A549 cells assessed as cell growth inhibition by measuring maximal efficacy measured after 7 days by WST-8 assay relative to control; assay type: functional; conditions: time 7 day
[3] = target: T2, von Hippel-Lindau disease tumor suppressor/SWI/SNF-related matrix-associated actin-dependent regulator of chromatin subfamily A member 4 (Homo sapiens, UniProt P51532+P40337); assay: In vivo PROTAC activity at VHL/SMARCA4 in SCID mouse xenografted with human MV4-11 cells assessed as remaining activity in tumor at 50 mg/kg, iv administered as single dose measured after 24 hrs by Western blotting analysis (reference value: 100 +/- 15 % ); assay type: ADME, organism-based
Target sequence in this assay (P51532 whole entry, the tested form may be a part): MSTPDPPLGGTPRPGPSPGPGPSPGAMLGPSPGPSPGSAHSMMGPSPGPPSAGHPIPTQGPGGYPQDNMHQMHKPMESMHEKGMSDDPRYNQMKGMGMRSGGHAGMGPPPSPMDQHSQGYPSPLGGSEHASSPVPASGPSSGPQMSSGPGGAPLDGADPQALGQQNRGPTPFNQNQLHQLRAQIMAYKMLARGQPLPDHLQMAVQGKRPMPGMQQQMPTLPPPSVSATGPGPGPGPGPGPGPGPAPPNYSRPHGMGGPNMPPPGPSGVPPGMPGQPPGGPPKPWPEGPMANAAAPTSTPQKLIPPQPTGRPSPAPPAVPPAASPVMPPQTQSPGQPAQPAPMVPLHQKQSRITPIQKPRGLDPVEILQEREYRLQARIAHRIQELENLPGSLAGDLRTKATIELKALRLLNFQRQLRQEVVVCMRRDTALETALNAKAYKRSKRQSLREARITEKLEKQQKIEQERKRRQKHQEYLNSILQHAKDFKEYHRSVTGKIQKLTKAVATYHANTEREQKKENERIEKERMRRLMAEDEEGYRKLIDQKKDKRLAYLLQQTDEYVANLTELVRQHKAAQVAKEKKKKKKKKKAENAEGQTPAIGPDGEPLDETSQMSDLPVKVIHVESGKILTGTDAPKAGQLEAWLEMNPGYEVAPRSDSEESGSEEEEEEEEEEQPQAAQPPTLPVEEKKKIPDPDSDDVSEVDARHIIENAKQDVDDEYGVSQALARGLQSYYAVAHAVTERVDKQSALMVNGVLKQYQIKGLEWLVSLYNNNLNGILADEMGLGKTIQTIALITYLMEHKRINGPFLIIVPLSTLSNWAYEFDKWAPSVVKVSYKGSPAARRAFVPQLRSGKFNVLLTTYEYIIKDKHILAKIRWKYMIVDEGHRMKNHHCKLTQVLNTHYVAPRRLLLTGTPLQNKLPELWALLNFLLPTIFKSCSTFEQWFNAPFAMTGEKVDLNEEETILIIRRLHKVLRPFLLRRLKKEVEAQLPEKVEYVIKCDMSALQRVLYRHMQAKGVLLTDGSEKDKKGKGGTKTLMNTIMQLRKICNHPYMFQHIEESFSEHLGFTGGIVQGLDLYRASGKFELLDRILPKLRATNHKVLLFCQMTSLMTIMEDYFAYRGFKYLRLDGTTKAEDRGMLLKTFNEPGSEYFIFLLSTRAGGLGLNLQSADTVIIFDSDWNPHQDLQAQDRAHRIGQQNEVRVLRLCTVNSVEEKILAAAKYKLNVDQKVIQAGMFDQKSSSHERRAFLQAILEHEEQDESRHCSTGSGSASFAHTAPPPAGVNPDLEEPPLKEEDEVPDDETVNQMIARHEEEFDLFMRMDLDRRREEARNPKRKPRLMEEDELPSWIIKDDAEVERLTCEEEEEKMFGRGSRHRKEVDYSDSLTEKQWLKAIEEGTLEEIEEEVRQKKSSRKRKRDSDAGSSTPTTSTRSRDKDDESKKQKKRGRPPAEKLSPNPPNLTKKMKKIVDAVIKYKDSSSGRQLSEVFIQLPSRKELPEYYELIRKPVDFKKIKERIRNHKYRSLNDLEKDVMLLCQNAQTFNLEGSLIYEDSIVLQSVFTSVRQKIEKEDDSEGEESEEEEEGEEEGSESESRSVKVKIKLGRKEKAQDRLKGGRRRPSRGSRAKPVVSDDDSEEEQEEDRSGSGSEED
Target sequence in this assay (P40337 whole entry, the tested form may be a part): as the sequence (P40337 whole entry) above

[4] = target: T2, von Hippel-Lindau disease tumor suppressor/SWI/SNF-related matrix-associated actin-dependent regulator of chromatin subfamily A member 4; assay: PROTAC activity at VHL/C-terminal HiBiT fused SMARCA4 in human HeLa cells assessed as induction of SMARCA4 degradation incubated for 1 to 48 hrs by Nano-Glo HiBiT analysis; assay type: cell-based; conditions: dose 0.001-10 µM, time 1-48 hrs
NCI-H1299 = assay: Antiproliferative activity against SMARCA4-deficient human NCI-H1299 cells assessed as cell growth inhibition measured after 7 days by WST-8 assay; assay type: functional; conditions: NCI-H1299, 168 h, time 7 day
NCI-H647 = assay: Antiproliferative activity against human NCI-H647 cells expressing wild-type SMARCA2 assessed as cell growth inhibition measured after 7 days by WST-8 assay; assay type: functional; conditions: NCI-H647, 168 h, time 7 day
[5] = target: T1, von Hippel-Lindau disease tumor suppressor/SWI/SNF-related matrix-associated actin-dependent regulator of chromatin subfamily A member 2; assay: In vivo PROTAC activity at VHL/SMARCA2 in SCID mouse xenografted with human MV4-11 cells assessed as remaining activity in tumor at 50 mg/kg, iv administered as single dose measured after 96 hrs by Western blotting analysis (reference value: 100 +/- 15 % ); assay type: ADME, organism-based
Target sequence in this assay (P51531 whole entry): as the sequence (P51531 whole entry) above
Target sequence in this assay (P40337 whole entry): as the sequence (P40337 whole entry) above

[6] = target: T1, von Hippel-Lindau disease tumor suppressor/SWI/SNF-related matrix-associated actin-dependent regulator of chromatin subfamily A member 2; assay: In vivo PROTAC activity at VHL/SMARCA2 in SCID mouse xenografted with human MV4-11 cells assessed as reduction of SMARCA2 level in tumor at 50 mg/kg, iv administered as single dose measured after 2 hrs by Western blotting analysis; assay type: ADME, organism-based; design: scale not given: the % may be the effect or the level left
Target sequence in this assay (P51531 whole entry): as the sequence (P51531 whole entry) above
Target sequence in this assay (P40337 whole entry): as the sequence (P40337 whole entry) above

SK-MEL-28 [7] = assay: Antiproliferative activity against human SK-MEL-28 cells expressing wild-type SMARCA2 assessed as cell growth inhibition by measuring maximal efficacy measured after 7 days by WST-8 assay relative to control; assay type: functional; conditions: time 7 day
[8] = target: T2, von Hippel-Lindau disease tumor suppressor/SWI/SNF-related matrix-associated actin-dependent regulator of chromatin subfamily A member 4; assay: In vivo PROTAC activity at VHL/SMARCA4 in SCID mouse xenografted with human MV4-11 cells assessed as remaining activity in tumor at 50 mg/kg, iv administered as single dose measured after 72 hrs by Western blotting analysis (reference value: 100 +/- 15 % ); assay type: ADME, organism-based
Target sequence in this assay (P51532 whole entry, the tested form may be a part): as the sequence (P51532 whole entry, the tested form may be a part) above
Target sequence in this assay (P40337 whole entry, the tested form may be a part): as the sequence (P40337 whole entry) above

[9] = target: T1, von Hippel-Lindau disease tumor suppressor/SWI/SNF-related matrix-associated actin-dependent regulator of chromatin subfamily A member 2; assay: PROTAC activity at VHL/wild-type SMARCA2 in human SK-MEL-28 cells assessed as induction of SMARCA2 degradation at 0.001 to 1000 nM incubated for 24 hrs by Western blotting analysis relative to control; assay type: cell-based; conditions: dose 0.001-1000 nM
[10] = Drug concentration in SCID mouse plasma xenografted with human MV4-11 cells at 50 mg/kg, iv measured after 48 hrs by LC-MS/MS method; assay type: ADME, organism-based
[11] = target: T2, von Hippel-Lindau disease tumor suppressor/SWI/SNF-related matrix-associated actin-dependent regulator of chromatin subfamily A member 4; assay: In vivo PROTAC activity at VHL/SMARCA4 in SCID mouse xenografted with human MV4-11 cells assessed as reduction of SMARCA4 level in tumor at 50 mg/kg, iv administered as single dose measured after 72 hrs by Western blotting analysis; assay type: ADME, organism-based; design: scale not given: the % may be the effect or the level left
Target sequence in this assay (P51532 whole entry, the tested form may be a part): as the sequence (P51532 whole entry, the tested form may be a part) above
Target sequence in this assay (P40337 whole entry, the tested form may be a part): as the sequence (P40337 whole entry) above

[12] = target: T2, von Hippel-Lindau disease tumor suppressor/SWI/SNF-related matrix-associated actin-dependent regulator of chromatin subfamily A member 4; assay: In vivo PROTAC activity at VHL/SMARCA4 in SCID mouse xenografted with human MV4-11 cells assessed as remaining activity in tumor at 50 mg/kg, iv administered as single dose measured after 96 hrs by Western blotting analysis (reference value: 100 +/- 15 % ); assay type: ADME, organism-based
Target sequence in this assay (P51532 whole entry, the tested form may be a part): as the sequence (P51532 whole entry, the tested form may be a part) above
Target sequence in this assay (P40337 whole entry, the tested form may be a part): as the sequence (P40337 whole entry) above

[13] = Drug concentration in SCID mouse tumor xenografted with human MV4-11 cells at 50 mg/kg, iv measured after 72 hrs by LC-MS/MS method; assay type: ADME, organism-based, Neoplasm; conditions: read-out: Ct
[14] = target: T1, von Hippel-Lindau disease tumor suppressor/SWI/SNF-related matrix-associated actin-dependent regulator of chromatin subfamily A member 2; assay: PROTAC activity at VHL/C-terminal HiBiT fused SMARCA2 in human HeLa cells assessed as induction of SMARCA2 degradation incubated for 6 hrs by Nano-Glo HiBiT analysis; assay type: cell-based
Target sequence in this assay (P51531 whole entry): as the sequence (P51531 whole entry) above
Target sequence in this assay (P40337 whole entry): as the sequence (P40337 whole entry) above

[15] = target: T1, von Hippel-Lindau disease tumor suppressor/SWI/SNF-related matrix-associated actin-dependent regulator of chromatin subfamily A member 2; assay: In vivo PROTAC activity at VHL/SMARCA2 in SCID mouse xenografted with human MV4-11 cells assessed as remaining activity in tumor at 50 mg/kg, iv administered as single dose measured after 2 hrs by Western blotting analysis (reference value: 100 +/- 15 % ); assay type: ADME, organism-based
Target sequence in this assay (P51531 whole entry): as the sequence (P51531 whole entry) above
Target sequence in this assay (P40337 whole entry): as the sequence (P40337 whole entry) above

NCI-H1975 = assay: Antiproliferative activity against human NCI-H1975 cells expressing wild-type SMARCA2 assessed as cell growth inhibition by measuring maximal efficacy measured after 7 days by WST-8 assay relative to control; assay type: functional; conditions: time 7 day
[16] = target: T2, von Hippel-Lindau disease tumor suppressor/SWI/SNF-related matrix-associated actin-dependent regulator of chromatin subfamily A member 4; assay: PROTAC activity at VHL/C-terminal HiBiT fused SMARCA4 in human HeLa cells assessed as induction of SMARCA4 degradation incubated for 3 hrs by Nano-Glo HiBiT analysis; assay type: cell-based
Target sequence in this assay (P51532 whole entry, the tested form may be a part): as the sequence (P51532 whole entry, the tested form may be a part) above
Target sequence in this assay (P40337 whole entry, the tested form may be a part): as the sequence (P40337 whole entry) above

[17] = target: T1, von Hippel-Lindau disease tumor suppressor/SWI/SNF-related matrix-associated actin-dependent regulator of chromatin subfamily A member 2; assay: PROTAC activity at VHL/C-terminal HiBiT fused SMARCA2 in human HeLa cells assessed as induction of SMARCA2 degradation by measuring maximal efficacy at 0.0001 to 1 uM incubated for 48 hrs by Nano-Glo HiBiT analysis relative to control; assay type: cell-based; conditions: dose 0.0001-1 µM
[18] = target: T1, von Hippel-Lindau disease tumor suppressor/SWI/SNF-related matrix-associated actin-dependent regulator of chromatin subfamily A member 2; assay: PROTAC activity at VHL/C-terminal HiBiT fused SMARCA2 in human HeLa cells assessed as induction of SMARCA2 degradation incubated for 48 hrs by Nano-Glo HiBiT analysis; assay type: cell-based
Target sequence in this assay (P51531 whole entry): as the sequence (P51531 whole entry) above
Target sequence in this assay (P40337 whole entry): as the sequence (P40337 whole entry) above

[19] = Toxicity in SCID mouse xenografted with human SK-MEL-5 cells assessed as effect on change in body weight at 25 to 50 mg/kg, iv administered twice a week measured after 32 days; assay type: organism-based; conditions: in vivo, 768 h, dose 25-50 mg/kg, time 32 day
[20] = Drug concentration in SCID mouse tumor xenografted with human MV4-11 cells at 50 mg/kg, iv measured after 48 hrs by LC-MS/MS method; assay type: ADME, organism-based, Neoplasm; conditions: read-out: Ct
[21] = target: T1, von Hippel-Lindau disease tumor suppressor/SWI/SNF-related matrix-associated actin-dependent regulator of chromatin subfamily A member 2; assay: In vivo PROTAC activity at VHL/SMARCA2 in SCID mouse xenografted with human MV4-11 cells assessed as reduction of SMARCA2 level in tumor at 50 mg/kg, iv administered as single dose measured after 48 hrs by Western blotting analysis; assay type: ADME, organism-based; design: scale not given: the % may be the effect or the level left
[22] = Drug concentration in SCID mouse tumor xenografted with human MV4-11 cells at 50 mg/kg, iv measured after 2 hrs by LC-MS/MS method; assay type: ADME, organism-based, Neoplasm; conditions: read-out: Ct

With `Cc1ncsc1-c1ccc([C@H](C)NC(=O)[C@@H]2C[C@@H](O)CN2C(=O)[C@@H](NC(=O)[C@H]2CC[C@H](CN3CC4(CCC(n5cc(-c6cc(-c7ccccc7O)nnc6N)cn5)CC4)C3)CC2)C(C)(C)C)cc1` the GI50 (SK-MEL-28 [1]) was greater than 10 µM, the Activity [2] was 70% and the Imax (A549) was 51%. The Activity [3] was 71%, the Activity [4] was “Dose-Dependent Effect” and the GI50 (NCI-H1299) was greater than 10 µM. For the same compound, the GI50 (NCI-H647) was 3.1 µM, the Activity [5] was 26% and the Activity [6] was 78%. For the same compound, the Imax (SK-MEL-28 [7]) was 15%, the Activity [8] was 91% and the Emax [9] was 98%. The concentration at 48 h [10] was 60.5 ng/mL, the Activity [11] was 9% and the Activity [12] was 84%. The concentration at 72 h [13] was 370 ng/g, the DC50 [14] was 0.044 µM and the Activity [15] was 22%. For the same compound, the Imax (NCI-H1975) was 47%, the DC50 [16] was greater than 3.3 µM and the Emax [17] was 94%. The DC50 [18] was 0.011 µM, the Activity [19] was “Non-Toxic” and the concentration at 48 h [20] was 978 ng/g. For the same compound, the Activity [21] was 83% and the concentration at 2 h [22] was 3420 ng/g.
